Reference: patent publication US9211310B2, “Use of a Chinese medicine composition in preparing medicaments for treating secondary prevention of myocardial infarction” (TASLY PHARMACEUTICAL GROUP CO., LTD, priority 2010, dated 2015)

Tested on: patients after acute myocardial infarction
Test: Life quality, Seattle Angina Questionnaire (SAQ), same clinical trial
Format: in vivo, human
Conditions: FAS
Description: 3508 patients who were in accordance with the diagnostic standards of AMI for 28 days to 2 years and differentiated as Qi deficiency and blood stagnation syndrome by TCM were studied. 0.5 g Chinese medicine composition prepared by the method of EXAMPLE 1 (Coded as QSYQ) was administrated half an hour after meal, 3 times per day.
There were 19 questions in the Seattle angina questionnaire (SAQ), including 5 parts: physical limitation (PL), anginal stability (AS), anginal frequency (AF), treatment satisfaction (TS) and disease perception (DP). After being given necessary explanation by doctors, the questions were answered independently by patients.
They included the overall survival time, angina pectoris score, TCM symptom score and life quality score, where angina pectoris score, TCM symptom score and life quality score were evaluated at randomization, in 1st, 3rd, 6th, 9th, 12th month after treatment and 18th month after follow-up.
All evaluation results of SAQ were described during the period of observation, and Wilcoxon rank sum test was used for inter-group comparison.
The evaluation results in the SAQ were depicted in different observations, and inter-group comparison was tested by Wilcoxon Rank-sum test.

Compound: CC(=O)Oc1ccccc1C(=O)O [Control group, aspirine]
- 10th question: Mostly satisfied, patients (%) (Baseline): (16.89%)
- 10th question: Partly satisfied, patients (%) (Baseline): (31.19%)
- 11th question: Continuously worried, patients (%) (Baseline): (9.59%)
- 11th question: No worried, patients (%) (Baseline): (4.13%)
- 11th question: Occasionally worried, patients (%) (Baseline): (40.93%)
- 11th question: Often worried, patients (%) (Baseline): (23.88%)
- 11th question: Seldom worried, patients (%) (Baseline): (21.47%)
- SAQ 4th question, 1-2 times per week: % of patients (Baseline): (19.80%)
- SAQ 4th question, 1-2 times per week: number of patients (Baseline): 344
- SAQ 4th question, 1-3 times per day: % of patients (Baseline): (8.64%)
- SAQ 4th question, 1-3 times per day: number of patients (Baseline): 150
- SAQ 4th question, <1 time per week: % of patients (Baseline): (10.13%)
- SAQ 4th question, <1 time per week: number of patients (Baseline): 176
- SAQ 4th question, Not used: % of patients (Baseline): (43.64%)
- SAQ 4th question, Not used: number of patients (Baseline): 758
- SAQ 4th question, ≧3 times per week: % of patients (Baseline): (16.87%)
- SAQ 4th question, ≧3 times per week: number of patients (Baseline): 293
- SAQ 4th question, ≧4 times per day: % of patients (Baseline): (0.92%)
- SAQ 4th question, ≧4 times per day: number of patients (Baseline): 16
- SAQ 5th question, Few: % of patients (Baseline): (18.88%)
- SAQ 5th question, Few: number of patients (Baseline): 328
- SAQ 5th question, Mild: % of patients (Baseline): (30.74%)
- SAQ 5th question, Mild: number of patients (Baseline): 534
- SAQ 5th question, Moderate: % of patients (Baseline): (20.50%)
- SAQ 5th question, Moderate: number of patients (Baseline): 356
- SAQ 5th question, None: % of patients (Baseline): (23.43%)
- SAQ 5th question, None: number of patients (Baseline): 407
- SAQ 5th question, Not medicated by doctors: % of patients (Baseline): (2.99%)
- SAQ 5th question, Not medicated by doctors: number of patients (Baseline): 52
- SAQ 5th question, Severe: % of patients (Baseline): (3.45%)
- SAQ 5th question, Severe: number of patients (Baseline): 60
- SAQ 6th question, Dissatisfied: % of patients (Baseline): (1.15%)
- SAQ 6th question, Dissatisfied: number of patients (Baseline): 20
- SAQ 6th question, Highly satisfied: % of patients (Baseline): (15.33%)
- SAQ 6th question, Highly satisfied: number of patients (Baseline): 267
- SAQ 6th question, Mostly dissatisfied: % of patients (Baseline): (6.54%)
- SAQ 6th question, Mostly dissatisfied: number of patients (Baseline): 114
- SAQ 6th question, Mostly satisfied: % of patients (Baseline): (45.52%)
- SAQ 6th question, Mostly satisfied: number of patients (Baseline): 793
- SAQ 6th question, Partly satisfied: % of patients (Baseline): (31.46%)
- SAQ 6th question, Partly satisfied: number of patients (Baseline): 548
- SAQ 7th question, Dissatisfied: % of patients (Baseline): (0.40%)
- SAQ 7th question, Dissatisfied: number of patients (Baseline): 7
- SAQ 7th question, Highly satisfied: % of patients (Baseline): (20.40%)
- SAQ 7th question, Highly satisfied: number of patients (Baseline): 355
- SAQ 7th question, Mostly dissatisfied: % of patients (Baseline): (4.60%)
- SAQ 7th question, Mostly dissatisfied: number of patients (Baseline): 80
- SAQ 7th question, Mostly satisfied: % of patients (Baseline): (47.99%)
- SAQ 7th question, Mostly satisfied: number of patients (Baseline): 835
- SAQ 7th question, Partly satisfied: % of patients (Baseline): (26.61%)
- SAQ 7th question, Partly satisfied: number of patients (Baseline): 463
- SAQ Question 1-1 Mildly limited, number of patients (Baseline): 34
- SAQ Question 1-1 Mildly limited, percent of patients (Baseline): (1.95%)
- SAQ Question 1-1 Moderately limited, number of patients (Baseline): 16
- SAQ Question 1-1 Moderately limited, percent of patients (Baseline): (0.92%)
- SAQ Question 1-1 Not limited, number of patients (Baseline): 1582
- SAQ Question 1-1 Not limited, percent of patients (Baseline): (90.92%)
- SAQ Question 1-1 Other reasons, number of patients (Baseline): 5
- SAQ Question 1-1 Other reasons, percent of patients (Baseline): (0.29%)
- SAQ Question 1-1 Severely limited, number of patients (Baseline): 1
- SAQ Question 1-1 Severely limited, percent of patients (Baseline): (0.06%)
- SAQ Question 1-1 Slightly limited, number of patients (Baseline): 102
- SAQ Question 1-1 Slightly limited, percent of patients (Baseline): (5.86%)
- SAQ Question 1-2 Mildly limited, number of patients (Baseline): 46
- SAQ Question 1-2 Mildly limited, percent of patients (Baseline): (2.64%)
- SAQ Question 1-2 Moderately limited, number of patients (Baseline): 18
- SAQ Question 1-2 Moderately limited, percent of patients (Baseline): (1.03%)
- SAQ Question 1-2 Not limited, number of patients (Baseline): 1539
- SAQ Question 1-2 Not limited, percent of patients (Baseline): (88.45%)
- SAQ Question 1-2 Other reasons, number of patients (Baseline): 6
- SAQ Question 1-2 Other reasons, percent of patients (Baseline): (0.34%)
- SAQ Question 1-2 Severely limited, number of patients (Baseline): 2
- SAQ Question 1-2 Severely limited, percent of patients (Baseline): (0.11%)
- SAQ Question 1-2 Slightly limited, number of patients (Baseline): 129
- SAQ Question 1-2 Slightly limited, percent of patients (Baseline): (7.41%)
- SAQ Question 1-6: Mildly limited, patients (%) (Baseline): (20.89%)
- SAQ Question 1-6: Moderately limited, patients (%) (Baseline): (17.95%)
- SAQ Question 1-6: Not limited, patients (%) (Baseline): (25.85%)
- SAQ Question 1-6: Other reasons, patients (%) (Baseline): (0.92%)
- SAQ Question 1-6: Severely limited, patients (%) (Baseline): (6.75%)
- SAQ Question 1-6: Slightly limited, patients (%) (Baseline): (27.64%)
- SAQ Question 1-7: Mildly limited, patients (%) (Baseline): (24.74%)
- SAQ Question 1-7: Moderately limited, patients (%) (Baseline): (19.42%)
- SAQ Question 1-7: Not limited, patients (%) (Baseline): (10.64%)
- SAQ Question 1-7: Other reasons, patients (%) (Baseline): (2.81%)
- SAQ Question 1-7: Severely limited, patients (%) (Baseline): (20.94%)
- SAQ Question 1-7: Slightly limited, patients (%) (Baseline): (21.46%)
- SAQ Question 1-8: Mildly limited, patients (%) (Baseline): (23.63%)
- SAQ Question 1-8: Moderately limited, patients (%) (Baseline): (22.57%)
- SAQ Question 1-8: Not limited, patients (%) (Baseline): (8.07%)
- SAQ Question 1-8: Other reasons, patients (%) (Baseline): (2.40%)
- SAQ Question 1-8: Severely limited, patients (%) (Baseline): (25.96%)
- SAQ Question 1-8: Slightly limited, patients (%) (Baseline): (17.37%)
- 8th question: Dissatisfied, patients (%) (Follow-up): (0.07%)
- 8th question: Highly satisfied, patients (%) (Follow-up): (28.03%)
- 8th question: Mostly dissatisfied, patients (%) (Follow-up): (0.62%)
- 8th question: Mostly satisfied, patients (%) (Follow-up): (60.61%)
- 8th question: Partly satisfied, patients (%) (Follow-up): (10.67%)
- 9th question: Few, patients (%) (Follow-up): (44.26%)
- 9th question: Mild, patients (%) (Follow-up): (27.29%)
- 9th question: Moderate, patients (%) (Follow-up): (3.78%)
- 9th question: Severe, patients (%) (Follow-up): (0.14%)
- 9th question: Uneffective, patients (%) (Follow-up): (24.54%)
- 10th question: Dissatisfied, patients (%) (Follow-up): (18.50%)
- 10th question: Highly satisfied, patients (%) (Follow-up): (9.56%)
- 10th question: Mostly dissatisfied, patients (%) (Follow-up): (19.05%)
- 10th question: Mostly satisfied, patients (%) (Follow-up): (32.12%)
- 10th question: Partly satisfied, patients (%) (Follow-up): (20.77%)
- 11th question: Continuously worried, patients (%) (Follow-up): (1.38%)
- 11th question: No worried, patients (%) (Follow-up): (8.80%)
- 11th question: Occasionally worried, patients (%) (Follow-up): (38.93%)
- 11th question: Often worried, patients (%) (Follow-up): (6.74%)
- 11th question: Seldom worried, patients (%) (Follow-up): (44.15%)
- SAQ 4th question, 1-2 times per week: % of patients (Follow-up): (13.28%)
- SAQ 4th question, 1-2 times per week: number of patients (Follow-up): 192
- SAQ 4th question, 1-3 times per week: % of patients (Follow-up): (2.84%)
- SAQ 4th question, 1-3 times per week: number of patients (Follow-up): 41
- SAQ 4th question, <1 time per week: % of patients (Follow-up): (16.04%)
- SAQ 4th question, <1 time per week: number of patients (Follow-up): 232
- SAQ 4th question, Not used: % of patients (Follow-up): (66.04%)
- SAQ 4th question, Not used: number of patients (Follow-up): 955
- SAQ 4th question, ≧3 times per week: % of patients (Follow-up): (1.80%)
- SAQ 4th question, ≧3 times per week: number of patients (Follow-up): 26
- SAQ 4th question, ≧4 times per day: % of patients (Follow-up): (0.00%)
- SAQ 4th question, ≧4 times per day: number of patients (Follow-up): 0
- SAQ 5th question, 1-2 times per week: % of patients (Follow-up): (32.97%)
- SAQ 5th question, 1-2 times per week: number of patients (Follow-up): 478
- SAQ 5th question, 1-3 times per day: % of patients (Follow-up): (3.17%)
- SAQ 5th question, 1-3 times per day: number of patients (Follow-up): 46
- SAQ 5th question, <1 time per week: % of patients (Follow-up): (31.17%)
- SAQ 5th question, <1 time per week: number of patients (Follow-up): 452
- SAQ 5th question, No onset: % of patients (Follow-up): (7.52%)
- SAQ 5th question, No onset: number of patients (Follow-up): 109
- SAQ 5th question, ≧3 times per week: % of patients (Follow-up): (25.03%)
- SAQ 5th question, ≧3 times per week: number of patients (Follow-up): 363
- SAQ 5th question, ≧4 times per day: % of patients (Follow-up): (0.14%)
- SAQ 5th question, ≧4 times per day: number of patients (Follow-up): 2
- SAQ 6th question, Dissatisfied: % of patients (Follow-up): (0.00%)
- SAQ 6th question, Dissatisfied: number of patients (Follow-up): 0
- SAQ 6th question, Highly satisfied: % of patients (Follow-up): (28.18%)
- SAQ 6th question, Highly satisfied: number of patients (Follow-up): 410
- SAQ 6th question, Mostly dissatisfied: % of patients (Follow-up): (0.62%)
- SAQ 6th question, Mostly dissatisfied: number of patients (Follow-up): 9
- SAQ 6th question, Mostly satisfied: % of patients (Follow-up): (62.75%)
- SAQ 6th question, Mostly satisfied: number of patients (Follow-up): 913
- SAQ 6th question, Partly satisfied: % of patients (Follow-up): (8.45%)
- SAQ 6th question, Partly satisfied: number of patients (Follow-up): 123
- SAQ 7th question, Dissatisfied: % of patients (Follow-up): (0.00%)
- SAQ 7th question, Dissatisfied: number of patients (Follow-up): 0
- SAQ 7th question, Highly satisfied: % of patients (Follow-up): (30.56%)
- SAQ 7th question, Highly satisfied: number of patients (Follow-up): 444
- SAQ 7th question, Mostly dissatisfied: % of patients (Follow-up): (0.28%)
- SAQ 7th question, Mostly dissatisfied: number of patients (Follow-up): 4
- SAQ 7th question, Mostly satisfied: % of patients (Follow-up): (62.49%)
